Data taken from PubChem BioAssay (NCI).
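Growth conditions: 96-well plates. Treatment: test compound, 48 hours, 5 concentrations. Analysis: linear interpolation between bracketing concentrations; unreached endpoints set to highest concentration. GI50 = concentration required for 50% inhibition of growth. TGI is the concentration that stops growth completely.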

Key:
Assay in all cases: inhibition of tumour cell growth, NCI panel, 48 h
786-0 renal = test system: 786-0 renal
HCC-2998 colon = test system: HCC-2998 colon
HCT-15 colon = test system: HCT-15 colon
K-562 leukemia = test system: K-562 leukemia
NCI-H522 lung = test system: NCI-H522 lung
OVCAR-3 ovarian = test system: OVCAR-3 ovarian
RXF 393 renal = test system: RXF 393 renal
SF-268 CNS = test system: SF-268 CNS
UACC-257 melanoma = test system: UACC-257 melanoma
UACC-62 melanoma = test system: UACC-62 melanoma

Structure (SMILES) | GI50 (786-0 renal) | TGI (786-0 renal) | GI50 (HCC-2998 colon) | TGI (HCC-2998 colon) | GI50 (HCT-15 colon) | TGI (HCT-15 colon) | GI50 (K-562 leukemia) | TGI (K-562 leukemia) | GI50 (NCI-H522 lung) | TGI (NCI-H522 lung) | GI50 (OVCAR-3 ovarian) | TGI (OVCAR-3 ovarian) | GI50 (RXF 393 renal) | TGI (RXF 393 renal) | GI50 (SF-268 CNS) | TGI (SF-268 CNS) | GI50 (UACC-257 melanoma) | TGI (UACC-257 melanoma) | GI50 (UACC-62 melanoma) | TGI (UACC-62 melanoma)
C/C(=C\CCc1ccoc1)CC/C=C(\C)CCCC1=CC(=O)OC1 | 9.16 µM | 42.2 µM | 8.4 µM | 29.1 µM | 4.47 µM | 20 µM | 4.8 µM | > 100 µM | 5.45 µM | 22.2 µM | 9.69 µM | 25 µM | 3.17 µM | 15.7 µM | 17.7 µM | > 100 µM | 2.81 µM | 11.3 µM | 4.73 µM | 29.7 µM
CC(SC(C)C(=O)N/N=C/c1cccc(Cl)c1)C(=O)N/N=C\c1cccc(Cl)c1 (stereo not given) | 14.5 µM | 35.5 µM | 8 µM | 75.8 µM | 32.3 µM | > 100 µM | 31.6 µM | > 100 µM | 3.57 µM | 11.6 µM | 2.03 µM | 3.81 µM | 22.6 µM | 90.1 µM | 10.2 µM | 35.5 µM | 32.3 µM | > 100 µM | 20.3 µM | 46.2 µM
NC(=NCCCOc1ccc(Cl)cc1)Nc1ccc(C(F)(F)F)cc1 | 1.65 µM | 4.32 µM | 1.2 µM | 2.64 µM | 1.72 µM | 4.15 µM | 1.76 µM | 5.6 µM | 1.75 µM | 4.41 µM | 2.26 µM | 6.14 µM | 1.42 µM | 5.52 µM | 2.77 µM | 15.9 µM | 1.72 µM | 3.56 µM | 1.81 µM | 3.61 µM
CC(C)c1ccc(Nc2ccc3c(OCCCN4CCN(C)CC4)cccc3n2)cc1 | 11.4 µM | 27 µM | 1.77 µM | 3.35 µM | 1.94 µM | 4.28 µM | 2.05 µM | 4.48 µM | 19.9 µM | 39.7 µM | 14.4 µM | 27.5 µM | 7.28 µM | 22.4 µM | 12.2 µM | 27.4 µM | 5.65 µM | 16.2 µM | 2.17 µM | 4.86 µM
CCCCc1c(OC)cc(O)c2c1C(=O)c1[nH]c(C(=O)O)c(O)c(=O)c1C2=O | – | 63.8 µM | – | > 100 µM | – | > 100 µM | – | > 100 µM | – | 9.94 µM | – | 8.45 µM | – | 8.25 µM | – | > 100 µM | – | 46.6 µM | – | 6.96 µM
CSc1nc2c(nc(C)c(=O)n2C2OCC(OC(C)=O)C(OC(C)=O)C2OC(C)=O)c(=O)[nH]1 (stereo not given) | – | > 100 µM | – | > 100 µM | – | > 100 µM | – | > 100 µM | – | > 100 µM | – | > 100 µM | – | > 100 µM | – | > 100 µM | – | > 100 µM | – | > 100 µM
O=C(Nc1nc2ncn(CCI)c2c(=O)[nH]1)c1ccccc1 | – | > 100 µM | – | > 100 µM | – | > 100 µM | – | > 100 µM | – | > 100 µM | – | > 100 µM | – | 59.3 µM | – | 50.3 µM | – | > 100 µM | – | > 100 µM
O=c1c2ccccc2[se]n1-c1cccnc1 | – | 87.4 µM | – | 33.8 µM | – | 52.8 µM | – | > 100 µM | – | 55.4 µM | – | > 100 µM | – | 69.2 µM | – | 70.6 µM | – | 57.7 µM | – | 37.1 µM
CCN1CCN(c2ccc(Nc3cc(N(C)C(=O)Nc4c(Cl)c(OC)cc(OC)c4Cl)ncn3)cc2)CC1 | 1.88 µM | 4.27 µM | 8.04 µM | 32.5 µM | 1.87 µM | 8.94 µM | 2.09 µM | 5.5 µM | 5.21 µM | 10.9 µM | 5.67 µM | 15.9 µM | 1.13 µM | 2.72 µM | 2.41 µM | 28 µM | 1.77 µM | 3.7 µM | 1.66 µM | 3.14 µM
O=S(=O)([O-])c1ccc2c(c1)-c1nc-2nc2[n-]c(nc3nc(nc4[n-]c(n1)c1ccc(S(=O)(=O)[O-])cc41)-c1cc(S(=O)(=O)[O-])ccc1-3)c1ccc(S(=O)(=O)[O-])cc21.[Cu+2].[Na+] | > 44 µM | > 69.6 µM | > 100 µM | > 100 µM | 0.977 µM | 36.4 µM | 0.749 µM | > 50.3 µM | 44.8 µM | > 100 µM | > 28.3 µM | > 100 µM | 49.4 µM | > 100 µM | > 69.8 µM | > 100 µM | > 100 µM | > 100 µM | 21.7 µM | > 100 µM
O=C(OCc1ccc2cccc(O)c2n1)N1CCN(C(=O)c2cc3cc(F)ccc3[nH]2)CC1 | 1.42 µM | 2.82 µM | 1.69 µM | 3.26 µM | 0.452 µM | 1.8 µM | 0.435 µM | 2.4 µM | 1.02 µM | 2.47 µM | 0.46 µM | 1.77 µM | 0.981 µM | 2.17 µM | 1.45 µM | 3.04 µM | 1.46 µM | 2.89 µM | 1.17 µM | 2.43 µM
C=C(C=O)[C@@H]1C2OC(=O)C(=C)[C@@H]2CC(O)[C@@]1(C)CC (stereo not given in full) | – | 10.2 µM | – | 31.1 µM | – | 24.7 µM | – | 22.6 µM | – | 4.52 µM | – | 21.3 µM | – | 10.3 µM | – | 71.4 µM | – | 26.9 µM | – | 13.9 µM
CCCCOC(=O)C1C(c2ccc(Cl)cc2)NC(c2ccc(Cl)cc2)C(C(=O)OCCCC)S1(=O)=O (stereo not given) | – | > 100 µM | – | > 100 µM | – | > 100 µM | – | > 100 µM | – | > 100 µM | – | > 100 µM | – | > 100 µM | – | > 100 µM | – | > 100 µM | – | > 100 µM
